# Several values for one entry are separate records, joined by “and”; a condition that tells them apart may be missing. Equal values may be shown once. Read-outs that look alike come from different tables or passages of the source.
# How the values were obtained:
# [1] = tested on: Aurantiochytrium acetophilum HS399; experiment: Propionate concentration and OCFA titers, flask (Example 13); assay type: cell-based; details: 96 h
# Source text: The trace element solution contains (g/L): […] The vitamin solution contains (mg/L): thiamine (100) and biotin (0.5). […] The washed biomass is freeze dried.
# [2] = tested on: Aurantiochytrium acetophilum HS399
# Protocol: The cultures are incubated in an orbital shaker at 180 rpm and 27° C.
# Respective Erlenmeyer flasks contain 100 mL of a medium supplemented with (g/L): dextrose (100), ammonium acetate (4.6), NaCl (12.5), MgSO4 7H2O (2.5), KH2PO4 (0.5), KCl (0.5) and CaCl2 (0.1). This medium also contains trace element solution (5 ml/L) and vitamin solution (1 ml/L). The trace element solution contains (g/L): EDTA di-sodium salt (6), FeCl3 6H2O (0.29), […] (6.84), MnCl2 4H2O (0.86), ZnCl2 (0.06), CoCl2 6H2O (0.026), NiSO4 6H2O (0.052), CuSO4 5H2O (0.002), Na2MoO4H2O (0.005). The vitamin solution contains (mg/L): thiamine (100), biotin (0.5) and cyanocobalamin (0.5). All culture materials can be autoclaved (e.g., 121° C., 15 min) and the media can be filter sterilized before use. […] Daily samples are collected to analyze the cell dry weight, residual glucose, culture pH (see FIG. 9), and lipid and fatty acid composition of the cultures. Cell dry weights (CDW) can be analyzed by filtration (e.g., 0.2 μm filter media) using a vacuum, and washed with a solution of ammonium bicarbonate. Residual glucose can be analyzed using colorimetric methods based on glucose […] activity. Biomass for lipid analysis is centrifuged and washed using purified water. The washed biomass is freeze dried. Total lipids are analyzed using Folch method (AOAC 996.06) and the FAMES re analyzed by gas chromatography using nonadecanoic (C19:0) acid as an internal standard.
# [3] = tested on: Aurantiochytrium acetophilum HS399; experiment: Propionic acid toxicity lethal threshold (Example 8); assay type: cell-based; details: for lethal threshold, Propionate Treatment (initial propionate): initial propionate approach, chronic, metric CDW, pH 6.4
# [4] = tested on: Yarrowia lipolytica ATCC18944; assay type: cell-based; details: for Total Fatty Acids / Total Lipids: 168 h
# Protocol: Culture conditions. In one implementation, Yarrowia lipolytica ATCC18944 can be cultivated in triplicates (n=3) in a medium containing (g/L): glycerol (80), monosodium […]), yeast extract (1), NaCl (12.5), MgSO4 (7), H2O (2.5), KCl (0.5), CaCl2 (0.1), KH2PO4 (0.5), trace metal solution (5 mL) and vitamin solution (1 mL). The trace element solution may contain (g/L): […] The vitamin solution can be filter-sterilized (e.g., using 0.2 μm pore size filter) containing (mg L-1): thiamine (100), biotin (0.5) and cyanocobalamin (0.5) unless otherwise stated. In some implementations cyanocobalamin might be added to or subtracted from the medium formulation to change or impact propionic acid deposition in OCFA. […] In one implementation, a concentration of the cyanocobalamin and/or cobalt in the culture medium can be below 0.4 μM. […] The flasks can be incubated in the dark in an orbital shaker at 180 rpm, 27° C. In this implementation, sodium propionate is fed batch every day according to respective treatments. […] Analyses. Cell dry weights can be obtained by drying samples that are previously vacuum filtrated (e.g., using 0.2 μm pore size filters). Residual propionate is analyzed directly by high performance liquid chromatography (HPLC). Lipids and total fatty acids are analyzed using a direct extraction, transesterification followed by gas chromatography (GC) and detection by flame ionization (FID). The different fatty acids are identified and quantified using appropriate internal and external standards. Propionic acid deposition rate.
# [5] = 116 h, propionate 3 + 3 + 3 g/L
# [6] = propionate 3 + 3 + 3 g/L (166 h)
# [7] = daily propionate 0+0+1+1+1+1 g/L
# [8] = daily propionate 0+0+2+2+2+2 g/L
# [9] = 192 h, itaconic acid 0 / propionate 6 g/L
structure (smiles),measurement,setting,value
"CCC(=O)O [Propionate, propionic acid]",OCFA,[1]; propionate 2 g/L,30.7 ± 1.8 % TFA
same,Total Fatty Acids,[1]; propionate 2 g/L,54.8 ± 5.6 % DW
same,OCFA,[1]; propionate 3 g/L,50.8 ± 1.1 % TFA
same,Total Fatty Acids,[1]; propionate 3 g/L,56.2 ± 0.6 % DW
same,OCFA,[1]; propionate 4 g/L,63.0 ± 2.5 % TFA
same,Total Fatty Acids,[1]; propionate 4 g/L,39.2 ± 12.4 % DW
same,OCFA,[1]; propionate 5 g/L,64.6 ± 0.3 % TFA
same,Total Fatty Acids,[1]; propionate 5 g/L,41.0 ± 3.4 % DW
same,OCFA,"[2]; 68 h, propionate 3 + 3 + 3 g/L",60.6 ± 0.4 % TFA
same,Total Fatty Acids,"[2]; 68 h, propionate 3 + 3 + 3 g/L",40.7 ± 1.7 % DW
same,OCFA,"[2]; 68 h, propionate 3 + 3 g/L",60.9 ± 0.6 % TFA
same,Total Fatty Acids,"[2]; 68 h, propionate 3 + 3 g/L",44.5 ± 4.5 % DW
same,OCFA,"[2]; 68 h, propionate 3 g/L",52.9 ± 7.3 % TFA
same,Total Fatty Acids,"[2]; 68 h, propionate 3 g/L",45.1 ± 3.0 % DW
same,growth (cell dry weight),"[2]; 70 h, fed batching of 9 g/L propionate",~15 g/L
same,Total Fatty Acids,"[2]; 96 h, propionate 3 + 3 + 3 g/L",56.3 ± 1.2 % DW
same,Total Lipids,"[2]; 96 h, propionate 3 + 3 + 3 g/L",70.0 ± 1.0 % DW
same,OCFA,"[2]; 96 h, propionate 3 + 3 + 3 g/L (P9)",62.9 ± 0.2 % TFA
same,OCFA,"[2]; 96 h, propionate 3 + 3 + 3 g/L (P9), listed as propionate",62.4 % TFA
same,Total Fatty Acids,"[2]; 96 h, propionate 3 + 3 g/L",62.5 ± 0.3 % DW
same,Total Lipids,"[2]; 96 h, propionate 3 + 3 g/L",73.3 ± 1.5 % DW
same,OCFA,"[2]; 96 h, propionate 3 + 3 g/L (P6)",62.8 ± 0.2 % TFA
same,OCFA,"[2]; 96 h, propionate 3 + 3 g/L (P6), listed as propionate",62.4 % TFA
same,OCFA,"[2]; 96 h, propionate 3 g/L",24.0 ± 1.0 % TFA
same,Total Fatty Acids,"[2]; 96 h, propionate 3 g/L",66.8 ± 4.8 % DW
same,Total Lipids,"[2]; 96 h, propionate 3 g/L",81.0 ± 1.0 % DW
same,OCFA,[2]; [5],60.8 ± 0.2 % TFA
same,Total Fatty Acids,[2]; [5],63.1 ± 2.0 % DW
same,Total Lipids,[2]; [5],74.0 ± 1.0 % DW
same,OCFA,"[2]; 116 h, propionate 3 + 3 + 3 g/L, listed as propionic acid",60.4 % TFA
same,OCFA,"[2]; 116 h, propionate 3 + 3 g/L",57.5 ± 1.4 % TFA
same,Total Fatty Acids,"[2]; 116 h, propionate 3 + 3 g/L",70.8 ± 0.6 % DW
same,Total Lipids,"[2]; 116 h, propionate 3 + 3 g/L",77.7 ± 0.6 % DW
same,OCFA,"[2]; 116 h, propionate 3 g/L",22.8 ± 0.8 % TFA
same,Total Fatty Acids,"[2]; 116 h, propionate 3 g/L",71.7 ± 4.3 % DW
same,Total Lipids,"[2]; 116 h, propionate 3 g/L",74.8 ± 0.3 % DW
same,non-lethal but growth inhibitory concentration,"[2]; as low as, pH of 7",1 g/L
same,OCFA Productivity,[2]; [6],2.56 ± 0.04 g/L/day
same,Propionate deposition,[2]; [6],39.5 ± 1.7%
same,OCFA Productivity,[2]; propionate 3 + 3 g/L (116 h),2.89 ± 0.06 g/L/day
same,Propionate deposition,[2]; propionate 3 + 3 g/L (116 h),65.0 ± 0.6%
same,OCFA Productivity,[2]; propionate 3 g/L (96 h),1.53 ± 0.02 g/L/day
same,Propionate deposition,[2]; propionate 3 g/L (96 h),57.0 ± 0.9%
same,OCFAs of total DW of algal product,"[2]; three doses of 3 g/L, 60.4% OCFAs of the 63.1% TFA",38.1%
same,"lethal threshold, Propionate Treatment (initial propionate)",[3]; listed as Propionic acid,20 g/L
same,"lethal threshold, Propionate Treatment (initial propionate)",[3]; listed as propionate,20 g/L and 30 g/L
same,"lethal threshold, Propionate Treatment","[3]; pH drift approach, acute, metric OUR, pH 5.3",2.3 ± 0.1 g/L
same,pH at which oxygen uptake rate dropped (tolerance limit),"[3]; residual propionate 2.3-2.4 g/L, pH ramp 7 to 4",5.3
same,daily propionic feed not affecting growth,[4],up to 2 g/L d
same,Total Fatty Acids,[4]; [7],17.3 ± 1.6 % DW
same,Total Lipids,[4]; [7],19.0 ± 0.0 % DW
same,Total Fatty Acids,[4]; [8],16.2 ± 0.5 % DW
same,Total Lipids,[4]; [8],18.3 ± 0.6 % DW
same,Total Fatty Acids,[4]; daily propionate 0 + 0.6 g/L,21.3 ± 2.8 % DW
same,Total Lipids,[4]; daily propionate 0 + 0.6 g/L,21.7 ± 3.2 % DW
same,Total Fatty Acids,[4]; daily propionate 0.3 + 0.3 g/L,21.7 ± 2.5 % DW
same,Total Lipids,[4]; daily propionate 0.3 + 0.3 g/L,23.7 ± 3.5 % DW
same,Cell dry weight,[4]; [9],8.3 ± 1.2 g/L
same,Consumed propionate,[4]; [9],5.1 ± 1.5 g/L
same,Odd chain fatty acids,[4]; [9],1.3 ± 0.5 % DW
same,Propionic acid deposition,[4]; [9],0.6 ± 0.1%
same,growth on propionate as sole carbon source,[4]; FIG. 25,able to grow
same,Consumed propionate,[4]; cyanocobalamin 0 μM,2.6 g/L
same,Propionate deposition,[4]; cyanocobalamin 0 μM,0.99%
same,Consumed propionate,[4]; cyanocobalamin 0.00037 μM,1.7 g/L
same,Propionate deposition,[4]; cyanocobalamin 0.00037 μM,0.83%
same,Cell dry weight,"[4]; propionate 0+0+2+2+2+2 g/L d, cyanocobalamin 0 μM",6.0 g/L
same,Cell dry weight,"[4]; propionate 0+0+2+2+2+2 g/L d, cyanocobalamin 0.00037 μM",5.3 g/L
same,propionic acid deposition rates in OCFAs,[4]; relatively low,< 3 % TFA
same,OCFAs,[4]; total propionate fed batch 8 g/L,0.33 g/L

# — US12285034B2, “Human and non-human animal use of microbial anaplerotic oil” (HELIAE DEVELOPMENT, LLC, priority 2017, dated 2025)
